Measured values reported in US20250171437A1 (Agios Pharmaceuticals,Inc., priority 2022, published 2025).

Target: T1, human PAH with the R408W mutation (A375 R408W cells) (Homo sapiens, UniProt P00439, R408W)
T1 construct: expressed in transfected cells
T1 sequence (P00439 1-452 R408W): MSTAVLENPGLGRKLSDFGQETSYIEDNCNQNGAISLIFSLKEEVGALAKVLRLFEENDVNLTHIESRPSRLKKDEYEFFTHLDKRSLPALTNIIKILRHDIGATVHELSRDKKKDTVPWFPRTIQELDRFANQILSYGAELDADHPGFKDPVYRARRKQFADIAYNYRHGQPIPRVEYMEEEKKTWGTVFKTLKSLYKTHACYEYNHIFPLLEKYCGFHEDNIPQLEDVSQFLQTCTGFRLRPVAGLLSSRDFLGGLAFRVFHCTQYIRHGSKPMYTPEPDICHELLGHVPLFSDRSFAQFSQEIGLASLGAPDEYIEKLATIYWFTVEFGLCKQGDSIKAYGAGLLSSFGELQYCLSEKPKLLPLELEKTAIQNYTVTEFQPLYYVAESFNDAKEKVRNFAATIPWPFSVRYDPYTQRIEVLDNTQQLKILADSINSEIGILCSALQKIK
Test: Cell Based Phenylalanine Flux Assay
Details: A375 R408W cells; 24 hrs with compound, then 20 μM sepiapterin and 800 μM 13C9,15N-Phenylalanine for 4 hours; 13C-Tyrosine by LC-MS; average where tested multiple times
In short: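 Phenylalanine-to-tyrosine flux is measured in A375 cells carrying stable human R408W PAH. After 24 h compound exposure, 13C9,15N-Phe (800 μM) with sepiapterin (20 μM) is supplied for 4 h and media 13C-Tyr is read by LC-MS; AC50s are binned.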

| AC50 [nM] | Compound |
| --- | --- |
| ≤ 500 | O=C(c1ocnc1C(F)(F)F)N1CCc2[nH]cnc2[C@H]1c1nc2cccc(F)c2o1 [Example 171, (S)-(4-(7-fluorobenzo[d]oxazol-2-yl)-6,7-dihydro-1H-imidazo[4,5-c]pyridin-5(4H)-yl)(4-(trifluoromethyl)oxazol-5-yl)methanone] |
| ≤ 500 | O=C(c1ocnc1C(F)(F)F)N1CCc2[nH]cnc2[C@@H]1c1nc2cccc(F)c2o1 [Example 172, (R)-(4-(7-fluorobenzo[d]oxazol-2-yl)-6,7-dihydro-1H-imidazo[4,5-c]pyridin-5(4H)-yl)(4-(trifluoromethyl)oxazol-5-yl)methanone] |
| ≤ 500 | O=C(c1ocnc1C(F)F)N1CCc2[nH]cnc2[C@H]1c1nc2cccc(F)c2o1 [Example 173, (S)-(4-(difluoromethyl)oxazol-5-yl)(4-(7-fluorobenzo[d]oxazol-2-yl)-6,7-dihydro-1H-imidazo[4,5-c]pyridin-5(4H)-yl)methanone] |
| ≤ 500 | O=C(c1ocnc1C(F)F)N1CCc2[nH]cnc2[C@@H]1c1nc2cccc(F)c2o1 [Example 174, (R)-(4-(difluoromethyl)oxazol-5-yl)(4-(7-fluorobenzo[d]oxazol-2-yl)-6,7-dihydro-1H-imidazo[4,5-c]pyridin-5(4H)-yl)methanone] |
| 500 to 1000 | O=C(c1cnn2cc(N3CCOCC3)c(Cl)cc12)N1CCc2[nH]cnc2[C@H]1c1nc2cc(F)ccc2o1 [Example 175, (S)-(5-chloro-6-morpholinopyrazolo[1,5-a]pyridin-3-yl)(4-(5-fluorobenzo[d]oxazol-2-yl)-6,7-dihydro-1H-imidazo[4,5-c]pyridin-5(4H)-yl)methanone] |
| 1000 to 5000 | O=C(c1cnn2cc(N3CCOCC3)c(Cl)cc12)N1CCc2[nH]cnc2[C@@H]1c1nc2cc(F)ccc2o1 [Example 176, (R)-(5-chloro-6-morpholinopyrazolo[1,5-a]pyridin-3-yl)(4-(5-fluorobenzo[d]oxazol-2-yl)-6,7-dihydro-1H-imidazo[4,5-c]pyridin-5(4H)-yl)methanone] |
| ≤ 500 | Nc1cn2ncc(C(=O)N3CCc4[nH]cnc4[C@H]3c3nc4cc(F)ccc4o3)c2cc1Cl [Example 177, (S)-(6-amino-5-chloropyrazolo[1,5-a]pyridin-3-yl)(4-(5-fluorobenzo[d]oxazol-2-yl)-6,7-dihydro-1H-imidazo[4,5-c]pyridin-5(4H)-yl)methanone] |
| ≥ 5000 | Nc1cn2ncc(C(=O)N3CCc4[nH]cnc4[C@@H]3c3nc4cc(F)ccc4o3)c2cc1Cl [Example 178, (R)-(6-amino-5-chloropyrazolo[1,5-a]pyridin-3-yl)(4-(5-fluorobenzo[d]oxazol-2-yl)-6,7-dihydro-1H-imidazo[4,5-c]pyridin-5(4H)-yl)methanone] |
| 500 to 1000 | O=C(c1ocnc1CF)N1CCc2[nH]cnc2[C@H]1c1nc2cc(F)ccc2o1 [Example 179, (S)-(4-(5-fluorobenzo[d]oxazol-2-yl)-6,7-dihydro-1H-imidazo[4,5-c]pyridin-5(4H)-yl)(4-(fluoromethyl)oxazol-5-yl)methanone] |
| 1000 to 5000 | O=C(c1ocnc1CF)N1CCc2[nH]cnc2[C@@H]1c1nc2cc(F)ccc2o1 [Example 180, (R)-(4-(5-fluorobenzo[d]oxazol-2-yl)-6,7-dihydro-1H-imidazo[4,5-c]pyridin-5(4H)-yl)(4-(fluoromethyl)oxazol-5-yl)methanone] |
| ≤ 500 | CN1CCN(c2cn3ncc(C(=O)N4CCc5[nH]cnc5[C@H]4c4nc5cc(F)ccc5o4)c3cc2Cl)CC1 [Example 181, (S)-(5-chloro-6-(4-methylpiperazin-1-yl)pyrazolo[1,5-a]pyridin-3-yl)(4-(5-fluorobenzo[d]oxazol-2-yl)-6,7-dihydro-1H-imidazo[4,5-c]pyridin-5(4H)-yl)methanone] |
| 1000 to 5000 | CN1CCN(c2cn3ncc(C(=O)N4CCc5[nH]cnc5[C@@H]4c4nc5cc(F)ccc5o4)c3cc2Cl)CC1 [Example 182, (R)-(5-chloro-6-(4-methylpiperazin-1-yl)pyrazolo[1,5-a]pyridin-3-yl)(4-(5-fluorobenzo[d]oxazol-2-yl)-6,7-dihydro-1H-imidazo[4,5-c]pyridin-5(4H)-yl)methanone] |
| 500 to 1000 | O=C(c1cnn(CC(F)(F)F)c1C(F)F)N1CCc2[nH]cnc2[C@H]1c1nc2cc(F)ccc2o1 [Example 183, (S)-(5-(difluoromethyl)-1-(2,2,2-trifluoroethyl)-1H-pyrazol-4-yl)(4-(5-fluorobenzo[d]oxazol-2-yl)-6,7-dihydro-1H-imidazo[4,5-c]pyridin-5(4H)-yl)methanone] |
| 1000 to 5000 | O=C(c1cnn(CC(F)(F)F)c1C(F)F)N1CCc2[nH]cnc2[C@@H]1c1nc2cc(F)ccc2o1 [Example 184, (R)-(5-(difluoromethyl)-1-(2,2,2-trifluoroethyl)-1H-pyrazol-4-yl)(4-(5-fluorobenzo[d]oxazol-2-yl)-6,7-dihydro-1H-imidazo[4,5-c]pyridin-5(4H)-yl)methanone] |
| 500 to 1000 | Cc1nc(C(C)(C)C#N)oc1C(=O)N1CCc2[nH]cnc2[C@H]1c1nc2cc(F)ccc2o1 [Example 185, (S)-2-(5-(4-(5-fluorobenzo[d]oxazol-2-yl)-4,5,6,7-tetrahydro-1H-imidazo[4,5-c]pyridine-5-carbonyl)-4-methyloxazol-2-yl)-2-methylpropanenitrile] |
| 1000 to 5000 | Cc1nc(C(C)(C)C#N)oc1C(=O)N1CCc2[nH]cnc2[C@@H]1c1nc2cc(F)ccc2o1 [Example 186, (R)-2-(5-(4-(5-fluorobenzo[d]oxazol-2-yl)-4,5,6,7-tetrahydro-1H-imidazo[4,5-c]pyridine-5-carbonyl)-4-methyloxazol-2-yl)-2-methylpropanenitrile] |
| ≤ 500 | CC(C)(O)c1nc(C(F)F)c(C(=O)N2CCc3[nH]cnc3[C@H]2c2nc3ccc(F)cc3o2)o1 [Example 187, (S)-(4-(difluoromethyl)-2-(2-hydroxypropan-2-yl)oxazol-5-yl)(4-(6-fluorobenzo[d]oxazol-2-yl)-6,7-dihydro-1H-imidazo[4,5-c]pyridin-5(4H)-yl)methanone] |
| 1000 to 5000 | CC(C)(O)c1nc(C(F)F)c(C(=O)N2CCc3[nH]cnc3[C@@H]2c2nc3ccc(F)cc3o2)o1 [Example 188, (R)-(4-(difluoromethyl)-2-(2-hydroxypropan-2-yl)oxazol-5-yl)(4-(6-fluorobenzo[d]oxazol-2-yl)-6,7-dihydro-1H-imidazo[4,5-c]pyridin-5(4H)-yl)methanone] |
| 500 to 1000 | O=C(c1ccnn1C(F)F)N1CCc2[nH]cnc2[C@H]1c1nc2ccc(F)cc2o1 [Example 189, (S)-(1-(difluoromethyl)-1H-pyrazol-5-yl)(4-(6-fluorobenzo[d]oxazol-2-yl)-6,7-dihydro-1H-imidazo[4,5-c]pyridin-5(4H)-yl)methanone] |
| 1000 to 5000 | O=C(c1ccnn1C(F)F)N1CCc2[nH]cnc2[C@@H]1c1nc2ccc(F)cc2o1 [Example 190, (R)-(1-(difluoromethyl)-1H-pyrazol-5-yl)(4-(6-fluorobenzo[d]oxazol-2-yl)-6,7-dihydro-1H-imidazo[4,5-c]pyridin-5(4H)-yl)methanone] |
| 500 to 1000 | Cn1cc(-c2nnc(C(=O)N3CCc4[nH]cnc4[C@H]3c3nc4cccc(F)c4o3)o2)cn1 [Example 191, (S)-(4-(7-fluorobenzo[d]oxazol-2-yl)-6,7-dihydro-1H-imidazo[4,5-c]pyridin-5(4H)-yl)(5-(1-methyl-1H-pyrazol-4-yl)-1,3,4-oxadiazol-2-yl)methanone] |
| 1000 to 5000 | Cn1cc(-c2nnc(C(=O)N3CCc4[nH]cnc4[C@@H]3c3nc4cccc(F)c4o3)o2)cn1 [Example 192, (R)-(4-(7-fluorobenzo[d]oxazol-2-yl)-6,7-dihydro-1H-imidazo[4,5-c]pyridin-5(4H)-yl)(5-(1-methyl-1H-pyrazol-4-yl)-1,3,4-oxadiazol-2-yl)methanone] |
| ≤ 500 | CC(C)(O)c1nc(C(F)F)c(C(=O)N2CCc3[nH]cnc3[C@H]2c2nc3cccc(F)c3o2)o1 [Example 193, (S)-(4-(difluoromethyl)-2-(2-hydroxypropan-2-yl)oxazol-5-yl)(4-(7-fluorobenzo[d]oxazol-2-yl)-6,7-dihydro-1H-imidazo[4,5-c]pyridin-5(4H)-yl)methanone] |
| ≤ 500 | CC(C)(O)c1nc(C(F)F)c(C(=O)N2CCc3[nH]cnc3[C@@H]2c2nc3cccc(F)c3o2)o1 [Example 194, (R)-(4-(difluoromethyl)-2-(2-hydroxypropan-2-yl)oxazol-5-yl)(4-(7-fluorobenzo[d]oxazol-2-yl)-6,7-dihydro-1H-imidazo[4,5-c]pyridin-5(4H)-yl)methanone] |
| ≤ 500 | O=C(c1ccnn1C(F)F)N1CCc2[nH]cnc2[C@H]1c1nc2cccc(F)c2o1 [Example 195, (S)-(1-(difluoromethyl)-1H-pyrazol-5-yl)(4-(7-fluorobenzo[d]oxazol-2-yl)-6,7-dihydro-1H-imidazo[4,5-c]pyridin-5(4H)-yl)methanone] |
| 1000 to 5000 | O=C(c1ccnn1C(F)F)N1CCc2[nH]cnc2[C@@H]1c1nc2cccc(F)c2o1 [Example 196, (R)-(1-(difluoromethyl)-1H-pyrazol-5-yl)(4-(7-fluorobenzo[d]oxazol-2-yl)-6,7-dihydro-1H-imidazo[4,5-c]pyridin-5(4H)-yl)methanone] |
